# Measured values reported in US20200325505A1, “FILAMENTOUS FUNGI CAPABLE OF PRODUCING VERY LONG CHAIN FATTY ACIDS” (UT-Battelle, LLC, priority 2019, published 2020).
# Residues, ends and D or L forms follow the SMILES beside them.
# Columns and labels:
# [1] = test system: Mortierella elongata AG77; assay: Nitrogen source utilisation in Biolog 96-well plates, formazan formation after tetrazolium addition; format: cell-based; settings: for Metabolized: Metabolized = more formazan formation than a control containing no nitrogen source, observed visually at 2 h, 24 h, 148 h; for Nitrogen sources that Mortierella elongata AG77 can metabolize: text summary of Table 4
# Protocol: Two 300 mL volumes of growth medium comprising 1 g/L KH2PO4, 1 g/L MgSO4 7H2O, 0.1 g/L CaCl2, 0.02 g/L FeNaEDTA, 0.1 g/L NaCl, and either 1 g/L NH4NO3 or 20 g/L sucrose were prepared. […] Aliquots of 200 μL of carbon-free medium or nitrogen-free medium were pipetted into each well of a set of 96-well plates previously prepared with lyophilized putative carbon or nitrogen sources (Biolog Inc., Hayward, Calif.). Inocula were prepared by perforating a culture of Mortierella elongata AG77 grown on 20 g/L potato dextrose agar with a 3 mm diameter cork borer and separating the surface mycelial mat from the solid growth medium using tweezers. Each well was inoculated with one inoculum. Cultures were incubated at 21° C. for 24 hours to allow metabolic changes to stabilize, and then 100 μL of 3 g/L tetrazolium chloride in water was added to each well.
# Conclusions were based on rate and intensity of formazan formation using the 3-(4,5-dimethylthiazol-2-yl)-2,5-diphenyltetrazolium bromide ([…]) assay. “Metabolized” indicates more formazan formation than a control containing no nitrogen source, and “Toxic” indicates less formazan formation than a control containing no nitrogen source, “Metabolized” and “Toxic” assignments are mutually exclusive. In this example, a compound may be “Metabolized” or “Toxic,” but not both.
# [2] = test system: Mortierella elongata AG77; assay: Carbon source utilisation in Biolog 96-well plates, formazan formation after tetrazolium addition; format: cell-based; settings: for Metabolized: Metabolized = more formazan formation than a control containing no carbon source, observed visually at 2 h, 24 h, 148 h; for Carbon sources that Mortierella elongata AG77 can metabolize: summary of Table 3
# Protocol: Two 300 mL volumes of growth medium comprising 1 g/L KH2PO4, 1 g/L MgSO4 7H2O, 0.1 g/L CaCl2, 0.02 g/L FeNaEDTA, 0.1 g/L NaCl, and either 1 g/L NH4NO3 or 20 g/L sucrose were prepared. Acidity was adjusted to 5.5 using NaOH and volumes of growth medium were autoclaved 30 min at 121° C. to sterilize. Aliquots of 200 μL of carbon-free medium or nitrogen-free medium were pipetted into each well of a set of 96-well plates previously prepared with lyophilized putative carbon or nitrogen sources (Biolog Inc., Hayward, Calif.). Inocula were prepared by perforating a culture of Mortierella elongata AG77 grown on 20 g/L potato dextrose agar with a 3 mm diameter cork borer and separating the surface mycelial mat from the solid growth medium using tweezers. Each well was inoculated with one inoculum. Cultures were incubated at 21° C. for 24 hours to allow metabolic changes to stabilize, and then 100 μL of 3 g/L tetrazolium chloride in water was added to each well. Formazan formation was observed visually at 2 h, 24 h, and 148 h.
# Conclusions were based on rate and intensity of formazan formation using the 3-4,5-dimethylthiazol-2-yl)-2,5-diphenyltetrazolium bromide (MTT) assay. “Metabolized” indicates more formazan formation than a control containing no carbon source, and “Toxic” indicates less formazan formation than a control containing no carbon source. “Metabolized” and “Toxic” assignments are mutually exclusive. In this example, a compound may be “Metabolized” or “Toxic,” but not both.
# [3] = compound as nitrogen source, Toxic = less formazan formation than a control containing no nitrogen source
# [4] = compound as carbon source, Toxic = less formazan formation than a control containing no carbon source
Compound,Metabolized ([1]; compound as nitrogen source),Metabolized ([2]; compound as carbon source),"Toxic [2, 4]",other results
"CC(O)C(N)=O (racemic) [D,L-Lactamide]",no,–,–,"Toxic [1, 3]: no"
"CCCCCCC(N)C(=O)O (racemic) [D,L-α-Amino- Caprylic Acid]",no,–,–,"Toxic [1, 3]: no"
"CCC(N)C(=O)O (racemic) [D,L-α-Amino-N-Butyric Acid]",no,–,–,Toxic [1]: no
Nc1ncnc2nc[nH]c12 [Adenine],no,–,–,Toxic [1]: no
N=C(N)NCCCCN [Agmatine],no,–,–,"Toxic [1, 3]: no"
C[C@H](N)C(=O)N[C@@H](CC(=O)O)C(=O)O [Ala-Asp] (H-Ala-Asp-OH),yes,–,–,"Toxic [1, 3]: no; Nitrogen sources that Mortierella elongata AG77 can metabolize [1]: can metabolize"
C[C@H](N)C(=O)N[C@@H](CCC(N)=O)C(=O)O [Ala-Gln] (H-Ala-Gln-OH),yes,–,–,"Toxic [1, 3]: no; Nitrogen sources that Mortierella elongata AG77 can metabolize [1]: can metabolize"
C[C@H](N)C(=O)N[C@@H](CCC(=O)O)C(=O)O [Ala-Glu] (H-Ala-Glu-OH),yes,–,–,"Toxic [1, 3]: no; Nitrogen sources that Mortierella elongata AG77 can metabolize [1]: can metabolize"
C[C@H](N)C(=O)N[C@@H](Cc1cnc[nH]1)C(=O)O [Ala-His] (H-Ala-His-OH),no,–,–,"Toxic [1, 3]: no"
CC(C)C[C@H](NC(=O)[C@H](C)N)C(=O)O [Ala-Leu] (H-Ala-Leu-OH),yes,–,–,"Toxic [1, 3]: no; Nitrogen sources that Mortierella elongata AG77 can metabolize [1]: can metabolize"
C[C@H](N)C(=O)N[C@H](C(=O)O)[C@@H](C)O [Ala-Thr] (H-Ala-Thr-OH),no,–,–,"Toxic [1, 3]: no"
NC(=O)NC1NC(=O)NC1=O (centres unmarked) [Allantoin],no,–,–,Toxic [1]: no
O=C1NC(=O)C(=O)C(=O)N1 [Alloxan],no,–,–,"Toxic [1, 3]: no"
N [Ammonia],no,–,–,Toxic [1]: no
NC(=O)NC(N)=O [Biuret],no,–,–,"Toxic [1, 3]: no"
Nc1ccn([C@@H]2O[C@H](CO)[C@@H](O)[C@H]2O)c(=O)n1 [Cytidine],yes,–,–,Toxic [1]: no; Nitrogen sources that Mortierella elongata AG77 can metabolize [1]: can metabolize
Nc1cc[nH]c(=O)n1 [Cytosine],no,–,–,Toxic [1]: no
NC(=O)C[C@@H](N)C(=O)O [D-Asparagine],no,–,–,Toxic [1]: no
N[C@H]1C(O)O[C@H](CO)[C@H](O)[C@@H]1O (stereo partly drawn) [D-Galactosamine],no,–,–,Toxic [1]: no

Compound,Metabolized ([1]; compound as nitrogen source),Metabolized ([2]; compound as carbon source),"Toxic [2, 4]",other results
N[C@H](CCC(=O)O)C(=O)O [D-Glutamic Acid],no,–,–,"Toxic [1, 3]: no"
OC[C@@H](O)[C@@H](O)CO [i-Erythritol],–,no,no,–
O=C(O)Cc1cccc(O)c1 [m-Hydroxy Phenyl Acetic Acid],–,no,no,–
O[C@H]1[C@H](O)[C@@H](O)[C@H](O)[C@@H](O)[C@H]1O [m-Inositol],–,yes,no,Carbon sources that Mortierella elongata AG77 can metabolize [2]: can metabolize
O=C(O)C(O)C(O)C(=O)O (centres unmarked) [m-Tartaric Acid],–,yes,–,Carbon sources that Mortierella elongata AG77 can metabolize [2]: can metabolize
O=C(O)Cc1ccc(O)cc1 [p-Hydroxy Phenyl Acetic Acid],–,no,no,–
OC[C@H]1O[C@@H]2O[C@H]3[C@H](O)[C@@H](O)[C@@H](O[C@H]4[C@H](O)[C@@H](O)[C@@H](O[C@H]5[C@H](O)[C@@H](O)[C@@H](O[C@H]6[C@H](O)[C@@H](O)[C@@H](O[C@H]7[C@H](O)[C@@H](O)[C@@H](O[C@H]1[C@H](O)[C@H]2O)O[C@@H]7CO)O[C@@H]6CO)O[C@@H]5CO)O[C@@H]4CO)O[C@@H]3CO [α-Cyclodextrin],–,no,no,–
OC[C@H]1O[C@H](O)[C@H](O)[C@@H](O)[C@@H]1O [α-D-Glucose],–,no,–,Toxic [2]: no
OC[C@H]1O[C@@H](O[C@H]2[C@H](O)[C@@H](O)[C@@H](O)O[C@@H]2CO)[C@H](O)[C@@H](O)[C@H]1O [α-D-Lactose],–,no,–,–
CCC(O)C(=O)O (stereo not drawn) [α-Hydroxy Butyric Acid],–,no,no,–
O=C1CCC(C(=O)O)O1 (stereo not drawn) [α-Hydroxy Glutaric Acid-γ-Lactone],–,no,no,–
CCC(=O)C(=O)O [α-Keto-Butyric Acid],–,no,no,–
O=C(O)CCC(=O)C(=O)O [α-Keto-Glutaric Acid],–,–,no,–
CCCC(=O)C(=O)O [α-Keto-Valeric Acid],–,no,no,–
COC1OC(CO)C(O)C(O)C1O [α-Methyl-D-Galactoside],–,yes,no,Carbon sources that Mortierella elongata AG77 can metabolize [2]: can metabolize
COC1OC(CO)C(O)C(O)C1O [α-Methyl-D-Mannoside],–,no,no,–
OC[C@H]1O[C@@H]2O[C@H]3[C@H](O)[C@@H](O)[C@@H](O[C@H]4[C@H](O)[C@@H](O)[C@@H](O[C@H]5[C@H](O)[C@@H](O)[C@@H](O[C@H]6[C@H](O)[C@@H](O)[C@@H](O[C@H]7[C@H](O)[C@@H](O)[C@@H](O[C@H]8[C@H](O)[C@@H](O)[C@@H](O[C@H]1[C@H](O)[C@H]2O)O[C@@H]8CO)O[C@@H]7CO)O[C@@H]6CO)O[C@@H]5CO)O[C@@H]4CO)O[C@@H]3CO [β-Cyclodextrin],–,no,no,–
OC[C@H]1O[C@@H](O)[C@H](O)[C@H](O)[C@@H]1O [β-D-Allose],–,no,–,Toxic [2]: no
CC(O)CC(=O)O (stereo not drawn) [β-Hydroxy Butyric Acid],–,no,–,Toxic [2]: no

Compound,Metabolized ([1]; compound as nitrogen source),Metabolized ([2]; compound as carbon source),"Toxic [2, 4]",other results
CO[C@@H]1O[C@H](CO)[C@@H](O)[C@H](O)[C@H]1O [β-Methyl-D-Galactoside],–,yes,no,Carbon sources that Mortierella elongata AG77 can metabolize [2]: can metabolize
CO[C@@H]1O[C@H](CO)[C@@H](O)[C@H](O)[C@H]1O [β-Methyl-D-Glucoside],–,no,no,–
CO[C@@H]1O[C@H](C(=O)O)[C@@H](O)[C@H](O)[C@H]1O [β-Methyl-D-Glucuronic Acid],–,no,no,–
COC1OCC(O)C(O)C1O [β-Methyl-D-Xyloside],–,no,no,–
OC[C@H]1O[C@@H]2O[C@H]3[C@H](O)[C@@H](O)[C@@H](O[C@H]4[C@H](O)[C@@H](O)[C@@H](O[C@H]5[C@H](O)[C@@H](O)[C@@H](O[C@H]6[C@H](O)[C@@H](O)[C@@H](O[C@H]7[C@H](O)[C@@H](O)[C@@H](O[C@H]8[C@H](O)[C@@H](O)[C@@H](O[C@H]9[C@H](O)[C@@H](O)[C@@H](O[C@H]1[C@H](O)[C@H]2O)O[C@@H]9CO)O[C@@H]8CO)O[C@@H]7CO)O[C@@H]6CO)O[C@@H]5CO)O[C@@H]4CO)O[C@@H]3CO [γ-Cyclodextrin],–,no,no,–
O=C(O)CCCO [γ-Hydroxy Butyric Acid],–,no,no,–
Chondroitin Sulfate C,–,–,–,Toxic [2]: no
Dextrin,–,–,–,Toxic [2]: no
Gelatin,–,–,–,Toxic [2]: no
Gentiobiose,–,no,–,–
Glycogen,–,–,–,Toxic [2]: no
Laminarin,–,–,–,Toxic [2]: no
Maltotriose,–,yes,no,Carbon sources that Mortierella elongata AG77 can metabolize [2]: can metabolize
Mannan,–,–,–,Toxic [2]: no
Pectin,–,–,–,Toxic [2]: no
Tween 20,–,yes,no,Carbon sources that Mortierella elongata AG77 can metabolize [2]: can metabolize
Tween 40,–,no,no,–
Tween 80,–,yes,no,Carbon sources that Mortierella elongata AG77 can metabolize [2]: can metabolize
